Holding throughout (assay type): biochemical
Assay [1] concerns the target T1, Itk (Homo sapiens, UniProt Q08881).
T1 construct: Kinases are expressed as either kinase domains or full length constructs; made in house
T1 sequence (Q08881 1-620): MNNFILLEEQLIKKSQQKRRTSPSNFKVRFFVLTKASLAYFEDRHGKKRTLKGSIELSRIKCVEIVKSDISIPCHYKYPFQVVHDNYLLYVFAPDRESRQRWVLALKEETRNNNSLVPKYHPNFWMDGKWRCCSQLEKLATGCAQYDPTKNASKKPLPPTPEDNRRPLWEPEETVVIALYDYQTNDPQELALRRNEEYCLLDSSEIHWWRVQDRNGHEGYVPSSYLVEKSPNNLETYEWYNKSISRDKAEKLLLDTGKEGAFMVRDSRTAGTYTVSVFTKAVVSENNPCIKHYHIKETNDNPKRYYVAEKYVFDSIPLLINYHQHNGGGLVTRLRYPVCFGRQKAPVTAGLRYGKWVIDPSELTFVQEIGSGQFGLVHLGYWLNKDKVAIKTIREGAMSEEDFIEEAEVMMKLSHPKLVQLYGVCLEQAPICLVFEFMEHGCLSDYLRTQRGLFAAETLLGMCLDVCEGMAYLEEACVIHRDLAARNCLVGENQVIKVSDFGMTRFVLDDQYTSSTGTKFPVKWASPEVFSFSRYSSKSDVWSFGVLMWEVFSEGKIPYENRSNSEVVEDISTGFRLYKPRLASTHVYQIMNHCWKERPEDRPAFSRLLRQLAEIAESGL
As to the kind of experiment: Kinase inhibition assay (33P transfer), Itk. Conditions: Table 3; read-out: Itk-1. A digest of the protocol: (§1)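 Activity read as 33P incorporation from ATP into poly(Glu,Tyr) 4:1 or poly(Arg,Ser) 3:1 substrate bound to microtiter plates, measured by scintillation after acid washing. Enzymes were affinity-purified GST or polyHis fusions (kinase domain or full length) from E. coli or baculovirus; IC50 = 50% reduction in labelled phosphate.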

Assay [2] concerns the target T2, EGFR (Homo sapiens, UniProt P00533).
T2 construct: Kinases are expressed as either kinase domains or full length constructs; made in house
As to the kind of experiment: Kinase inhibition assay (33P transfer), EGFR. Particulars: Table 2, kinase inhibition class; read-out: EGFR-1. Put shortly:
as §1

In assay [3] the target is T3, IGFR-1 (Homo sapiens, UniProt P08069).
T3 construct: Kinases are expressed as either kinase domains or full length constructs; made in house
As to the kind of experiment: Kinase inhibition assay (33P transfer), IGFR-1. Particulars: Table 2, kinase inhibition class.

Assay [4] deals with T4, Lck (Homo sapiens, UniProt P06239).
T4 construct: Kinases are expressed as either kinase domains or full length constructs; made in house
Description: Kinase inhibition assay (33P transfer), Lck. Conditions: Table 3; read-out: Lck-1. A digest of the protocol:
(§2)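 Filterless plate radiometric format: immobilized poly(Glu,Tyr) 4:1 or poly(Arg,Ser) 3:1, 33P-labelled ATP, tagged recombinant kinase (some with regulatory partners). Incorporated label counted after phosphoric acid wash.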

The target of assay [5] is T5, c-Met (Homo sapiens, UniProt P08581).
T5 construct: Kinases are expressed as either kinase domains or full length constructs; made in house
Description: Kinase inhibition assay (33P transfer), c-Met. Conditions: Table 2, kinase inhibition class; read-out: Met-1. Put shortly:
as §1

The target of assay [6] is T6, AKT (Homo sapiens, UniProt Q9Y243).
T6 construct: Kinases are expressed as either kinase domains or full length constructs; made in house
As to the kind of experiment: Kinase inhibition assay (33P transfer), AKT. Conditions: Table 2, kinase inhibition class; read-out: AKT3-1. A digest of the protocol: as §2

Assay [7] deals with T7, Kdr (Homo sapiens, UniProt P35968).
T7 construct: Kinases are expressed as either kinase domains or full length constructs; made in house
As to the kind of experiment: Kinase inhibition assay (33P transfer), Kdr. Conditions: Table 3; read-out: KDR-1. A digest of the protocol:
as §2

Assay [8] addresses T8, Zap-70 (Homo sapiens, UniProt P43403).
T8 construct: Kinases are expressed as either kinase domains or full length constructs; made in house
T8 sequence (P43403 1-619): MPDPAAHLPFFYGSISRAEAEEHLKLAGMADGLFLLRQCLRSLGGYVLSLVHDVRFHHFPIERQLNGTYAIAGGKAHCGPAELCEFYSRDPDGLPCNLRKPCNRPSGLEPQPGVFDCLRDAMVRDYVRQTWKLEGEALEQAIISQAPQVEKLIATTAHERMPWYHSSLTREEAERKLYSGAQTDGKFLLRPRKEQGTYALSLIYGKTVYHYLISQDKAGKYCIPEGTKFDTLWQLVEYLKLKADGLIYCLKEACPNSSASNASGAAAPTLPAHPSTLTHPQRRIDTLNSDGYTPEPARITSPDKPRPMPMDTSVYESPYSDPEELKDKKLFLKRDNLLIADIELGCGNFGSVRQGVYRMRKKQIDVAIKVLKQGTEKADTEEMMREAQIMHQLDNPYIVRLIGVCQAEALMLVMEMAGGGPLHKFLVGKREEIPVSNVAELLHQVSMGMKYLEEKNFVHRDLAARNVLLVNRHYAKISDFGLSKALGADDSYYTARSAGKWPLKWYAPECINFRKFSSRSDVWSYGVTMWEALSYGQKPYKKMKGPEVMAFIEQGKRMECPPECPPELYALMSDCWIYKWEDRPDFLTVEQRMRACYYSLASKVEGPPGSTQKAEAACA
As to the kind of experiment: Kinase inhibition assay (33P transfer), Zap-70. Particulars: Table 3; read-out: Zap-1. A digest of the protocol: as §2

Structures are written as SMILES. “And” between values parts separate entries of the source, which are not always exact repeats. Identical values can stand only once.

T3 sequence (P08069 31-1367): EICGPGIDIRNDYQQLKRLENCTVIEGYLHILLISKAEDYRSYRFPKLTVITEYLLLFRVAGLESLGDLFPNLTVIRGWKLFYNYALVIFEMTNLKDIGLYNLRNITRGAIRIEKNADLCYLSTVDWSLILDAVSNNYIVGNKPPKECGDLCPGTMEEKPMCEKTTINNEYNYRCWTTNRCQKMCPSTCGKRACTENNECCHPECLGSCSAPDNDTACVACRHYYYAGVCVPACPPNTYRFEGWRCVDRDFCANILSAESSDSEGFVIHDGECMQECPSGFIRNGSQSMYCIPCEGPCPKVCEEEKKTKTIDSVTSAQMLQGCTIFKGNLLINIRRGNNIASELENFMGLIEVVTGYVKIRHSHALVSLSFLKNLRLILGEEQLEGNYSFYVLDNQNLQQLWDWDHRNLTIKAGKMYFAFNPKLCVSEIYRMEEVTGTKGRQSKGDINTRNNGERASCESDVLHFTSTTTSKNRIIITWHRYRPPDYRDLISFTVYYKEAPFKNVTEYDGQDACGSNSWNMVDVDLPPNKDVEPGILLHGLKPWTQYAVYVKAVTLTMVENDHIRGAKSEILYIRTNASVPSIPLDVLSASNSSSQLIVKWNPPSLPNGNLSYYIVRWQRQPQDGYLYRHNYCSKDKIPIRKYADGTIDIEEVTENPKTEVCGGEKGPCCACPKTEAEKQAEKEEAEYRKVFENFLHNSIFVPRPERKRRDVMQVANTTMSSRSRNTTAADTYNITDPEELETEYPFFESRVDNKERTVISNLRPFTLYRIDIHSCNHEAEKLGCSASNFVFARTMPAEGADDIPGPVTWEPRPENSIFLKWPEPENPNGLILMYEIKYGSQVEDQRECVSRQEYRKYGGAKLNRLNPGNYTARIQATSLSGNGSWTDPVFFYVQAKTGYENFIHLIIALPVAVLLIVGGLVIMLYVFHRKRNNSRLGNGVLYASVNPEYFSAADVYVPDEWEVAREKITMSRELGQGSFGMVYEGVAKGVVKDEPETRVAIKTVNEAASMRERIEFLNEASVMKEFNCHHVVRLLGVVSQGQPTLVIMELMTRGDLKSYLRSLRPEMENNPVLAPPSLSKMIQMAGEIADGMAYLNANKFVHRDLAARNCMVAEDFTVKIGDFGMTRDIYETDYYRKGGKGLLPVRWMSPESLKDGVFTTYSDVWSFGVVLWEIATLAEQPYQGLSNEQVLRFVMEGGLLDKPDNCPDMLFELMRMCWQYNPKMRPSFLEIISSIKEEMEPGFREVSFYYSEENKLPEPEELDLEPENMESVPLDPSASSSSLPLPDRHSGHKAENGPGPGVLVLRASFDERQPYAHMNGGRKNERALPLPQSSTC
T7 sequence (P35968 20-1356, species assumed): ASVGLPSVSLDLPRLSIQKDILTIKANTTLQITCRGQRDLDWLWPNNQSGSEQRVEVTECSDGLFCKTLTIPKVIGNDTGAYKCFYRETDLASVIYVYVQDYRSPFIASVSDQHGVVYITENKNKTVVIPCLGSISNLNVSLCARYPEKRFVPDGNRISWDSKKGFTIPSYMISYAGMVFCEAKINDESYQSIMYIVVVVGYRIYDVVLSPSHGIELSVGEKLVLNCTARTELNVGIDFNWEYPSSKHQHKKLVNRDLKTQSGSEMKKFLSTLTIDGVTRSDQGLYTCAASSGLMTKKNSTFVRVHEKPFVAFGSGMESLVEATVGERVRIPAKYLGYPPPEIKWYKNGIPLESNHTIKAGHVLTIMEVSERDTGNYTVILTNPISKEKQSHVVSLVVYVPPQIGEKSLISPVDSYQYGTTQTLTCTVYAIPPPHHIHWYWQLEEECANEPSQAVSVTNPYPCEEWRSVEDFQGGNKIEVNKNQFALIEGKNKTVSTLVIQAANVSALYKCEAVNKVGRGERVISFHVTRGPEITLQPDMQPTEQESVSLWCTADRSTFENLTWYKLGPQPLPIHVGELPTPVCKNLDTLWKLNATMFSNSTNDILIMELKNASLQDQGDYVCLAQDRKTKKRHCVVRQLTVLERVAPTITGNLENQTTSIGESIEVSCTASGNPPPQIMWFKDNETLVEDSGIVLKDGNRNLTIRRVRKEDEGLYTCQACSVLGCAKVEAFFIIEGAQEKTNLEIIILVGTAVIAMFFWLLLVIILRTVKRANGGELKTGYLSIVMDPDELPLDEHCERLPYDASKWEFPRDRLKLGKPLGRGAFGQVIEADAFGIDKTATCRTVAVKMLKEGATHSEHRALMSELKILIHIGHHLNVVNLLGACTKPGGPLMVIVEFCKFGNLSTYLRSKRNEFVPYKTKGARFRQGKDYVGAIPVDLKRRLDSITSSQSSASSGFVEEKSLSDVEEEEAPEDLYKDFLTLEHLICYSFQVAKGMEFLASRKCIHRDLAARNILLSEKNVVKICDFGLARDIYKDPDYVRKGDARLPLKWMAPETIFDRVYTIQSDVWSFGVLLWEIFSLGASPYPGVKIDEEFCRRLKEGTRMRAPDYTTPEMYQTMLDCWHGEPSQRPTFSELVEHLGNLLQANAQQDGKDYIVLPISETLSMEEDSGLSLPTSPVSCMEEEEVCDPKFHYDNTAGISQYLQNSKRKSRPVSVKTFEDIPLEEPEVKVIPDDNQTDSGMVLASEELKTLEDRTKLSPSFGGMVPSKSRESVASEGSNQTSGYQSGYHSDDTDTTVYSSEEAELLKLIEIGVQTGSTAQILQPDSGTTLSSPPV
T4 sequence (P06239 whole entry, species assumed, the tested form may be a part): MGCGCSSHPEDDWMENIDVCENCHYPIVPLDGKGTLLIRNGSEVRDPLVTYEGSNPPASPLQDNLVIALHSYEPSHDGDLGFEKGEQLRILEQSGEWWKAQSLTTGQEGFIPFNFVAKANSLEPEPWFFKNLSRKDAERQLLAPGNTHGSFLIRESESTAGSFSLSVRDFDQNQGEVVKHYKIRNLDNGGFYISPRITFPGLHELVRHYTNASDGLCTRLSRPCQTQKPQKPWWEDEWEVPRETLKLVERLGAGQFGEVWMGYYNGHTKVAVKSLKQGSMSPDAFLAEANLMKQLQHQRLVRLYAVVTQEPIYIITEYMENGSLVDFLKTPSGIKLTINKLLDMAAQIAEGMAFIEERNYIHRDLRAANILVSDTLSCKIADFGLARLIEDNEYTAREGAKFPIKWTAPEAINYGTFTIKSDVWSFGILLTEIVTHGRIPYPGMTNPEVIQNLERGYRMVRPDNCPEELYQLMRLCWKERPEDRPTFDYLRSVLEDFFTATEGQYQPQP
T2 sequence (P00533 25-1210, species assumed): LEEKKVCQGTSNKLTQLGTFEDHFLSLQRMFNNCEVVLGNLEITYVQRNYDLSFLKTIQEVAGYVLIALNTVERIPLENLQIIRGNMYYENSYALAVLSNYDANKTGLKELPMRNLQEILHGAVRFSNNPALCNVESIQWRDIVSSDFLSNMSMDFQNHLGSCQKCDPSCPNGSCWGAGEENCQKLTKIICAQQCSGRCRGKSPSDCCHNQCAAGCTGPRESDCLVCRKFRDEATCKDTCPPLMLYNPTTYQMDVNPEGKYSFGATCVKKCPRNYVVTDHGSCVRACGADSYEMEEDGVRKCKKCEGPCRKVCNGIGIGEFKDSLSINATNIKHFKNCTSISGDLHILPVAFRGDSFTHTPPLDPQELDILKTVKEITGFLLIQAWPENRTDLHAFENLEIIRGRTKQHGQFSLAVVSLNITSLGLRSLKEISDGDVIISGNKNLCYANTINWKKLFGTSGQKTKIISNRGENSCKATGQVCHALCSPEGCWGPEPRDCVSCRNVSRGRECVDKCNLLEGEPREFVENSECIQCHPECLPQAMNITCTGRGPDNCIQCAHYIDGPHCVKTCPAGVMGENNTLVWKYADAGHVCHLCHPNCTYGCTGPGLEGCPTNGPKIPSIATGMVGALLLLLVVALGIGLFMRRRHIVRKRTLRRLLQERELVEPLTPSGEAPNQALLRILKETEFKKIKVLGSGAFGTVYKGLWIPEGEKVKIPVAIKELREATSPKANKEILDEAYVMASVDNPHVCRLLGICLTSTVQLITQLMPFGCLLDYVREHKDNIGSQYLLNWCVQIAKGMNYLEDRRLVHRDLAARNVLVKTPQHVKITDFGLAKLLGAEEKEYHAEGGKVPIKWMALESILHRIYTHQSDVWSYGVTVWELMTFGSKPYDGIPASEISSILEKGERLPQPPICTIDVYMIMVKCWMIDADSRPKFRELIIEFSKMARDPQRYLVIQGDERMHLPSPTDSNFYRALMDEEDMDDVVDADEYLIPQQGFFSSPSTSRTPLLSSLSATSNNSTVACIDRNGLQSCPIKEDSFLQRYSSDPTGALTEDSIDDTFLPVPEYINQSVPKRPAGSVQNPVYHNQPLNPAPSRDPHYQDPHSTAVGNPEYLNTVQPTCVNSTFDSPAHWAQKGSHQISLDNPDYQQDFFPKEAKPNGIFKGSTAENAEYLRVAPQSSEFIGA
T6 sequence (Q9Y243 whole entry, the tested form may be a part): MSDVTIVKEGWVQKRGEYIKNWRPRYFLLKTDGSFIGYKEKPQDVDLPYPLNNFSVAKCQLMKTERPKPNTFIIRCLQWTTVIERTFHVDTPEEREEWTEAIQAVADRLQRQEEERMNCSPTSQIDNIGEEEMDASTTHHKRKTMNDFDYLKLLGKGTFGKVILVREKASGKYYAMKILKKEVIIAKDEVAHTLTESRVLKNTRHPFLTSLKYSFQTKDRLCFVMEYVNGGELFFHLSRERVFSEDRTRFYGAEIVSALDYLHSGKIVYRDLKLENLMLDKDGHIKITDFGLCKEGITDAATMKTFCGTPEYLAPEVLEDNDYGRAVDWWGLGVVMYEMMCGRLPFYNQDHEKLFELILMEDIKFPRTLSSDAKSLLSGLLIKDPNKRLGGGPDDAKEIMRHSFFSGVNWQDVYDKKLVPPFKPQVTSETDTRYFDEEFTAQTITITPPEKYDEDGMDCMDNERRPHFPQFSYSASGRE

Regarding `CC(=O)Nc1ccc(Nc2ncnc(-c3cccs3)n2)cc1` [Compound 355], the IC50 in assay [1], in assay [2], in assay [3], in assay [4], in assay [5] and in assay [6] was greater than 14.5 µM each time. Besides, the IC50 in assay [7] and in assay [8] was greater than 14.5 µM in each case.

For the compound `CC(C)(C)OC(=O)Nc1ccc(Nc2ncnc(Nc3ccc(OCc4ccccc4)cc3)n2)cc1` [Compound 162], the IC50 in assay [1] was greater than 9.29 µM; in assay [2], greater than 9.29 µM; in assay [3], greater than 9.29 µM; in assay [4] it was greater than 9.29 µM; in assay [5] it was greater than 9.29 µM; in assay [6], 7.22 to 9.29 µM. Also, the IC50 was 4.95 to 7.22 µM in assay [7] and greater than 9.29 µM in assay [8].

Take `FC(F)C(F)(F)Oc1cccc(Nc2ncnc(-c3ccnc(N4CCCCC4)c3)n2)c1` [Compound 346]: the IC50 in assay [1], in assay [2], in assay [3], in assay [4], in assay [5] and in assay [6] was greater than 10 µM in each case. Further, the IC50 was 0.892 to 5.35 µM in assay [7] and greater than 10 µM in assay [8].

For the compound `c1csc(-c2ncnc(Nc3ccc4c(c3)OCO4)n2)c1` [Compound 1072], the IC50 is greater than 15.1 µM in assay [1]; greater than 15.1 µM in assay [2]; greater than 15.1 µM in assay [3]; greater than 15.1 µM in assay [4]; 11.7 to 15.1 µM in assay [5]; greater than 15.1 µM in assay [6]. The IC50 was 8.04 to 11.7 µM in assay [7] and greater than 15.1 µM in assay [8].

Take `COc1cc(Nc2ncnc(N3CCc4ccccc4C3)n2)cc(OC)c1OC` [Compound 326]: the IC50 in assay [1], in assay [2], in assay [3], in assay [4], in assay [5] and in assay [6] was greater than 11.4 µM throughout. Also, the IC50 in assay [7] and in assay [8] was greater than 11.4 µM each time.

As for `COc1cc(Nc2ncnc(N3CCN(c4ccccn4)CC3)n2)cc(OC)c1OC` [Compound 213], the IC50 in assay [1], in assay [2], in assay [3], in assay [4], in assay [5] and in assay [6] was greater than 10.6 µM in each case. For the same compound, the figures for the IC50 in assay [7] and in assay [8] were 0.945 to 5.67 µM and greater than 10.6 µM, respectively.

`Nc1nc2ccccc2n1-c1ncnc(Cl)n1` [Compound 1029]: the IC50 in assay [1], in assay [2], in assay [3], in assay [4], in assay [5] and in assay [6] was greater than 18.2 µM in each case. Also, the values for the IC50 in assay [7] and in assay [8] were 14.2 to 18.2 µM and 9.73 to 14.2 µM, respectively.

Consider `COc1cc(Nc2ncnc(N3CCOCC3)n2)cc(OC)c1OC` [Compound 209], for which the IC50 in assay [1] is greater than 13 µM; in assay [2] it was greater than 13 µM; in assay [3] it was greater than 13 µM; in assay [4] it was greater than 13 µM; in assay [5] it was greater than 13 µM; in assay [6] it was 10.1 to 13 µM. Moreover, the IC50 in assay [7] and in assay [8] was greater than 13 µM each time.

As for `COc1cccc(Nc2ncnc(-c3cccs3)n2)n1` [Compound 362], the IC50 in assay [1], in assay [2], in assay [3], in assay [4], in assay [5] and in assay [6] was greater than 15.8 µM each time. Moreover, the IC50 in assay [7] and in assay [8] was greater than 15.8 µM in each case.

In the case of `COc1cc(Nc2ncnc(-c3ccncc3)n2)cc(OC)c1OC` [Compound 42], the IC50 in assay [1] was greater than 13.3 µM; in assay [2], greater than 13.3 µM; in assay [3] it was greater than 13.3 µM; in assay [4], 1.18 to 7.07 µM; in assay [5], greater than 13.3 µM; in assay [6], greater than 13.3 µM. The IC50 was 1.18 to 7.07 µM in assay [7] and greater than 13.3 µM in assay [8].

Take `COc1ccc(Nc2ncnc(-c3cccs3)n2)cc1OC` [Compound 357]: the IC50 in assay [1], in assay [2], in assay [3], in assay [4], in assay [5] and in assay [6] was greater than 14.3 µM each time. Besides, the IC50 in assay [7] and in assay [8] was greater than 14.3 µM each time.

On to `NC(=O)c1ccc(Nc2ncnc(-c3cccs3)n2)cc1` [Compound 354], for which the IC50 in assay [1], in assay [2], in assay [3], in assay [4], in assay [5] and in assay [6] was greater than 15.1 µM each time. For the same compound, the IC50 in assay [7] and in assay [8] was greater than 15.1 µM throughout.

In the case of `COC(=O)c1ccc(Nc2ncnc(-c3ccccc3)n2)cc1` [Compound 163], the IC50 in assay [1], in assay [2], in assay [3], in assay [4], in assay [5] and in assay [6] was greater than 14.7 µM in each case. Moreover, the IC50 in assay [7] and in assay [8] was greater than 14.7 µM in each case.

With `COc1cc(Nc2ncnc(Nc3cc(C)nn3C)n2)cc(OC)c1OC` [Compound 393], the IC50 is greater than 12.1 µM in assay [1]; 9.42 to 12.1 µM and > 12.1 µM in assay [2]; greater than 12.1 µM in assay [3]; 1.08 to 6.46 µM and > 12.1 µM in assay [4]; greater than 12.1 µM in assay [5]; greater than 12.1 µM in assay [6]. Besides, the IC50 is > 12.1 µM and 6.46 to 9.42 µM in assay [7]; greater than 12.1 µM in assay [8].

With `COc1cc(Nc2ncnc(Cl)n2)cc(OC)c1OC` [Compound 924, 2-chloro-4-(3′,4′,5′-trimethoxyanilino)-1,3,5-triazine], the IC50 in assay [1], in assay [2], in assay [3], in assay [4], in assay [5] and in assay [6] was greater than 15.2 µM each time. Further, the results for the IC50 in assay [7] and in assay [8] were 1.35 to 8.09 µM and greater than 15.2 µM, respectively.

On to `COc1cc(Nc2ncnc(-n3ccc4cccnc43)n2)cc(OC)c1OC` [Compound 327], for which the IC50 in assay [1] is 1.06 to 6.34 µM; in assay [2], greater than 11.9 µM; in assay [3], 6.34 to 9.25 µM; in assay [4] it was 1.06 to 6.34 µM; in assay [5], greater than 11.9 µM; in assay [6], greater than 11.9 µM. Moreover, the IC50 in assay [7] and in assay [8] was greater than 11.9 µM in each case.

Consider `COc1cc(Nc2ncnc(N)n2)cc(OC)c1OC` [Compound 925], for which the IC50 in assay [1] is greater than 16.2 µM; in assay [2], greater than 16.2 µM; in assay [3], greater than 16.2 µM; in assay [4], 1.44 to 8.66 µM; in assay [5], greater than 16.2 µM; in assay [6], greater than 16.2 µM. The IC50 in assay [7] and in assay [8] was greater than 16.2 µM throughout.

As to `NC(=O)c1cccc(Nc2ncnc(-c3ccccc3)n2)c1` [Compound 151], the IC50 in assay [1], in assay [2], in assay [3], in assay [4], in assay [5] and in assay [6] was greater than 15.4 µM in each case. Moreover, the IC50 in assay [7] is 12 to 15.4 µM; in assay [8], greater than 15.4 µM.

For the origin of these results see patent US7074789B2, “Kinase inhibitors” (Amgen Inc., priority 1999, dated 2006).
